Results from publication PMC9775177, “NLRP3-Inflammasome Inhibition with IZD334 Does Not Reduce Cardiac Damage in a Pig Model of Myocardial Infarction” (Biomedicines, 2022).
Read-outs that look alike come from different tables or passages of the source.

Experiments:
[1] = Pharmacokinetics study in healthy pigs; assay type: in vivo
Protocol: Healthy female pigs (n = 3) were given intravenous (IV) treatment with IZD334 (3 mg/kg) via a 30 min infusion, and blood was collected at multiple timepoints and analyzed to determine pharmacokinetics. After a wash-out period of 3 days, the pigs received an oral dose (10 mg/kg), and plasma was again collected and analyzed.
(§1) In vivo IZD334 concentrations were measured in plasma samples using mass-spectrometry. IZD334 content was quantified using positive ionization mode and multiple reaction monitoring on a Sciex API 5500 Mass spectrometer (MRM transition: 392.0 > 176.1).
At multiple time points (0.033, 0.083, 0.17, 0.25, 0.50, 1.0, 2.0, 3.0, 4.0, 6.0, 8.0, 12.0, 24.0 h) after dosing, plasma was collected by whole-blood centrifugation at 1850× g, and samples were immediately stored to determine pharmacokinetics. After a wash-out period of 3 days, the pigs received an oral dose (10 mg/kg), and plasma was collected again at multiple time points (0.25, 0.50, 0.75, 1.0, 2.0, 3.0, 4.0, 6.0, 8.0, 12.0, 24.0 h) for pharmacokinetic purposes. Samples were sent to Sygnature Discovery (Nottingham, United Kingdom) to determine circulating levels of IZD334.
The volume of distribution at steady state (Vdss) is defined as the total concentration of IZD334 in the entire body divided by IZD334 plasma concentration. Drug clearance (Cl) was calculated by dividing the total administered dose with the area under the curve. Maximal concentration (Cmax) was obtained by calculating the mean of the highest concentrations of the separate pigs. Bioavailability (F%) was calculated using the following equation: (100 ∗ ((area under the curve oral dose × IV dose)/(area under the curve IV dose × oral dose))).

NLRP3-inflammasome [2] = assay: Ex vivo stimulation assay of whole blood after in vivo IZD334 infusion, IL-1β release; design: species or system pigs; details: whole blood taken 60 min after in vivo infusion of 10 mg/kg, LPS + ATP; before infusion 11856 ± 1969 ng/mL, p < 0.001
Protocol: To more specifically determine in vivo target engagement, whole blood was obtained at baseline (prior to IZD334 infusion) and 60 min after in vivo IZD334 infusion (10 mg/kg). These samples were then stimulated with LPS and ATP in a similar fashion as in the previously described experiments. IL-1β release was measured in the supernatant with a Luminex Immunoassay specific for porcine IL-1β (ProcartaTM Simplex, eBioscience, San Diego, CA, USA).

[3] = tested on: pig model of myocardial infarction; details: for 0 Min HR (bpm) / 30 Min MAP (mmHg) / 60 Min HR (bpm) / 90 Min MAP (mmHg) / 120 Min HR (bpm) / 150 Min MAP (mmHg): time after induction of MI
NLRP3-inflammasome [4] = assay: In vitro stimulation of porcine whole blood with LPS and ATP, IL-1β release; assay type: cell-based
Protocol: To confirm the ability of IZD334 to effectively attenuate porcine NLRP3-inflammasome signaling, we used a previously standardized study protocol. In short, porcine peripheral blood mononuclear cells (PBMCs) were isolated from healthy porcine animals. Whole blood samples and isolated PBMCs were stimulated with lipopolysaccharide (LPS) (1 µg/mL, L4516, Sigma-Aldrich, St. Louis, MO, USA) and increasing concentrations of IZD334. After three h of incubation, 5 mM adenosine triphosphate (ATP) (A1852, Sigma-Aldrich, St. Louis, MO, USA) was added for 1 h to induce inflammasome activation. IL-1β release was measured in the supernatant with a Luminex Immunoasssay specific for porcine IL-1β (EPX01A-66048-901, ProcartaTM Simplex, eBioscience, ThermoFisher, San Diego, CA, USA).
In short, porcine peripheral blood mononuclear cells (PBMCs) were isolated from healthy porcine animals using Ficoll density-gradient centrifugation. Whole blood samples and isolated PBMCs were stimulated with lipopolysaccharide (LPS) (1 µg/mL, L4516, Sigma-Aldrich, St. Louis, MO, USA) and increasing concentrations of IZD334 (top concentration of 10 µM with an 8-point half-log dilution). After three h of incubation, 5 mM adenosine triphosphate (ATP) (A1852, Sigma-Aldrich, St. Louis, MO, USA) was added for 1 h to induce inflammasome activation. IL-1β release was measured in the supernatant with a Luminex Immunoasssay specific for porcine IL-1β (ProcartaTM Simplex, eBioscience, San Diego, CA, USA).

[5] = IZD334 plasma concentrations in pigs subjected to MI; assay type: in vivo
Protocol: Oral treatment was continued for six days. […] Animals were sacrificed by exsanguination under anesthesia.
as §1

[6] = healthy pigs n = 3, PO 10 mg/kg

Structure (SMILES): CCN1CCC(S(=O)(=O)[N-]C(=O)Nc2c3c(cc4c2CCC4)CCC3)CC1.[K+] [IZD334]
- AUC0-inf (ng.h/mL) ([1]; healthy pigs n = 3, IV 3 mg/kg): 27,786 ng.h/mL
- Cl ([1]; healthy pigs n = 3, IV 3 mg/kg): 1.8 mL/min/kg
- MRT0-inf ([1]; healthy pigs n = 3, IV 3 mg/kg): 5.3 h
- Vdss ([1]; healthy pigs n = 3, IV 3 mg/kg): 0.58 L/kg
- T1/2 ([1]; healthy pigs n = 3, IV 3 mg/kg, 30 min infusion): 3.9 h
- AUC0-inf (ng.h/mL) [1, 6]: 86,337 ng.h/mL
- Cmax (ng/mL) [1, 6]: 12,116 ng/mL
- F% (bioavailability) ([1]; healthy pigs n = 3, PO 10 mg/kg versus IV 3 mg/kg): 93%
- time that plasma concentrations sufficient for effective inhibition were maintained ([1]; healthy pigs, IV 3 mg/kg, based on extrapolation of in vitro results): 24 h
- circulating levels 24 h after compound administration ([1]; healthy pigs, PO 10 mg/kg): adequate circulating levels
- IL-1β release after ex vivo stimulation (NLRP3-inflammasome [2]): 3968 ng/mL
- 0 Min HR (bpm) ([3]; 1 mg/kg group, n = 6): 70 ± 12 bpm
- 30 Min MAP (mmHg) ([3]; 1 mg/kg group, n = 6): 85 ± 7 mmHg
- 60 Min HR (bpm) ([3]; 1 mg/kg group, n = 6): 68 ± 9 bpm
- 90 Min MAP (mmHg) ([3]; 1 mg/kg group, n = 6): 71 ± 12 mmHg
- 120 Min HR (bpm) ([3]; 1 mg/kg group, n = 6): 67 ± 8 bpm
- 150 Min MAP (mmHg) ([3]; 1 mg/kg group, n = 6): 79 ± 11 mmHg
- 0 Min HR (bpm) ([3]; 3 mg/kg group, n = 7): 74 ± 4 bpm
- 30 Min MAP (mmHg) ([3]; 3 mg/kg group, n = 7): 74 ± 13 mmHg
- 60 Min HR (bpm) ([3]; 3 mg/kg group, n = 7): 72 ± 11 bpm
- 90 Min MAP (mmHg) ([3]; 3 mg/kg group, n = 7): 58 ± 20 mmHg
- 120 Min HR (bpm) ([3]; 3 mg/kg group, n = 7): 61 ± 7 bpm
- 150 Min MAP (mmHg) ([3]; 3 mg/kg group, n = 7): 70 ± 23 mmHg
- 0 Min HR (bpm) ([3]; 10 mg/kg group, n = 7): 73 ± 11 bpm
- 30 Min MAP (mmHg) ([3]; 10 mg/kg group, n = 7): 72 ± 12 mmHg
- 60 Min HR (bpm) ([3]; 10 mg/kg group, n = 7): 70 ± 11 bpm
- 90 Min MAP (mmHg) ([3]; 10 mg/kg group, n = 7): 56 ± 19 mmHg
- 120 Min HR (bpm) ([3]; 10 mg/kg group, n = 7): 62 ± 7 bpm
- 150 Min MAP (mmHg) ([3]; 10 mg/kg group, n = 7): 62 ± 15 mmHg
- Heart rate and mean arterial blood pressure versus placebo ([3]; first 2.5 h after induction of MI and subsequent compound administration, all dose groups): similar
- pigs that died one day after infarct induction ([3]; low-dose (1 mg/kg) group, presumably due to late VF, also one animal in the placebo group): one animal
- performance in whole blood assay compared with MCC950 (NLRP3-inflammasome [4]; porcine whole blood assay): performs as well as MCC950
- IC50 (NLRP3-inflammasome [4]; porcine whole blood, LPS 1 µg/mL 3 h, then 5 mM ATP 1 h, read-out: half maximal inhibitory concentration (IC50), IL-1β release): 0.35 µM
- LogIC50, whole blood stimulation (NLRP3-inflammasome [4]; porcine whole blood, LPS + ATP, basis of log not printed (fits nM)): 2.545
- Concentration (ng/mL) Mean ([5]; 1 mg/kg group (10 mg/kg IV loading dose), Reperfusion + 4 h, n = 6): 13,192 ng/mL
- Concentration (ng/mL) Mean ([5]; 1 mg/kg oral once daily group, Day 1, n = 6): 1434 ng/mL
- Concentration (ng/mL) Mean ([5]; 1 mg/kg oral once daily group, Day 2, n = 6): 795 ng/mL
- Concentration (ng/mL) Mean ([5]; 1 mg/kg oral once daily group, Day 3, n = 6): 555 ng/mL
- Concentration (ng/mL) Mean ([5]; 1 mg/kg oral once daily group, Day 7, n = 6): 44 ng/mL
- Concentration (ng/mL) Mean ([5]; 3 mg/kg group (10 mg/kg IV loading dose), Reperfusion + 4 h, n = 7): 11,992 ng/mL
- Concentration (ng/mL) Mean ([5]; 3 mg/kg oral once daily group, Day 1, n = 7): 2090 ng/mL
- Concentration (ng/mL) Mean ([5]; 3 mg/kg oral once daily group, Day 2, n = 7): 1501 ng/mL
- Concentration (ng/mL) Mean ([5]; 3 mg/kg oral once daily group, Day 3, n = 7): 1190 ng/mL
- Concentration (ng/mL) Mean ([5]; 3 mg/kg oral once daily group, Day 7, n = 7): 120 ng/mL
- Concentration (ng/mL) Mean ([5]; 10 mg/kg group (10 mg/kg IV loading dose), Reperfusion + 4, n = 7): 12,312 ng/mL
- Concentration (ng/mL) Mean ([5]; 10 mg/kg oral once daily group, Day 1, n = 7): 4522 ng/mL
- Concentration (ng/mL) Mean ([5]; 10 mg/kg oral once daily group, Day 2, n = 7): 4213 ng/mL
- Concentration (ng/mL) Mean ([5]; 10 mg/kg oral once daily group, Day 3, n = 7): 3887 ng/mL
- Concentration (ng/mL) Mean ([5]; 10 mg/kg oral once daily group, Day 7, n = 7): 233 ng/mL
